Source: patent US20080108562A1, “Treatment Of Bone Metastases By Means Of Pth Receptor Agonists” (Ferring B.V., priority 2004, published 2008)
“Also recorded” adds a separate entry of the source.

Tests used:
[1] = target: T1, PTH receptor (Homo sapiens, UniProt Q03431); settings: bone-related activities; relative to native 84 amino-acid hormone; cited from earlier work
T1 sequence (Q03431 27-593): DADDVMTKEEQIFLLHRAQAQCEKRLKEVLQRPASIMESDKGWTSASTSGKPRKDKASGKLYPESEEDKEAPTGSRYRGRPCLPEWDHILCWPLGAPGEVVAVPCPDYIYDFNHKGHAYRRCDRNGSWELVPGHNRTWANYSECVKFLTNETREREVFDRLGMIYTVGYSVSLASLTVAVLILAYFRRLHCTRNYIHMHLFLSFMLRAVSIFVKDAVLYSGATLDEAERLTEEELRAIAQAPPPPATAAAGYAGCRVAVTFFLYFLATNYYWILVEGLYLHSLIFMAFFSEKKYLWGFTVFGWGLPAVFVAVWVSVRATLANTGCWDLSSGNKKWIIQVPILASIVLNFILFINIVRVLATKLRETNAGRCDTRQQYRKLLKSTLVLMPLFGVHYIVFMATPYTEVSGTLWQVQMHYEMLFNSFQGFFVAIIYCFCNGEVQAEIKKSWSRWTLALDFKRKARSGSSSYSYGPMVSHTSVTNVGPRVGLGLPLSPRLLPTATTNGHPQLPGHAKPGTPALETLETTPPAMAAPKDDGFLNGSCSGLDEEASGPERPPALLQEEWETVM

[2] = system: rats; settings: rat, in vivo; cited from earlier work
[3] = system: adult C3H mice with murine CCL-11 (NCTC clone 2472) osteolytic sarcoma cells injected into the distal femur; experiment: Radiological analysis of bone density in animal model for metastatic bone disease; format: in vivo
Protocol: (§1) An animal model for metastatic bone disease was established in adult C3H mice with murine sarcoma cells as described in Honore, et al., Neuroscience. (2000) 98(3):585-98 (see also Clohisy, et al. J Orthop Res. (1996) 14(3):396-402). In brief, murine CCL-11 (NCTC clone 2472) osteolytic sarcoma cells were injected into the distal femur. The injection site was closed with dental grade amalgam. Wounds were closed with wound clips. Wound clips were removed at day 6 to prevent interference with behavioral testing. Sham-injected and sarcoma-injected mice received daily subcutaneous injections of either 10 μl/kg vehicle or 10 μl/kg vehicle containing PTH (1-34) at 80 μg/ml concentration beginning after testing and radiographs were taken 6 d after injection of sarcoma cells. Treatment with PTH (1-34) or vehicle ended 14 d after injection, when final behavioral testing was done and the animals sacrificed.
[…] Mice were lightly anesthetized to prevent movement during the x-ray. The radiographs of the mouse femurs were scanned at maximal resolution (2400 dpi) and saved in digital grayscale format (TIFF). The grayscale levels were standardized for all radiographs by setting the amalgam region to white (grayscale value of 255) and the lower limit of the grayscale was set to the darkest pixels of the scanned image. The grayscale values correspond to the luminosity of the scanned images.
The images were analyzed with Metamorph (Universal Imaging Corp, West Chester, Pa.). The bones were divided into 3 equal regions. Data were taken from the lower region at the site were sarcoma cells were injected. Thresholding was standardized to include all pixels with grayscale values between 2 to 76. Since grayscale values are related to luminosity, an increase in the threshold area represents an increase in darker, or lower density, bone area. The integrated intensity values for the regions were determined with Metamorph. Significant decreases in the intensity of a region indicates a significant reduction in bone density. […]

[4] = system: adult C3H mice with murine CCL-11 (NCTC clone 2472) osteolytic sarcoma cells injected into the distal femur; experiment: Spontaneous limb use in animal model for metastatic bone disease; format: in vivo; settings: metastatic bone tumor animals, day 14
Protocol: as §1
Spontaneous limb use was assessed as described by Luger et al (2001). The mouse was placed in an empty mouse pan and observed while walking across the pan in a continuous motion. Limping and/or guarding behavior of the right (sarcoma treated) hindlimb was rated on the following scale: 0=complete lack of use, 1=partial non-use, 2=limping and guarding, 3=limping, 4=normal walking.

[5] = system: adult C3H mice with murine CCL-11 (NCTC clone 2472) osteolytic sarcoma cells injected into the distal femur; experiment: Flinching and guarding behavior in animal model for metastatic bone disease; format: in vivo; settings: metastatic bone tumor animals, day 14
Protocol: as §1
To assess flinching and guarding behavior, animals were placed in raised plexiglass chambers with a wire grid floor for observation of flinching and guarding of the right hindlimb. The mice were allowed to acclimate to the chamber for 20 minutes. Guarding and flinching behaviors of each mouse were measured for 2 minutes. The number of flinches were counted, and the time spent guarding the foot (the foot is lifted off of the floor) was measured.

[6] = system: adult C3H mice with murine CCL-11 (NCTC clone 2472) osteolytic sarcoma cells injected into the distal femur; experiment: Tactile allodynia (von Frey paw withdrawal threshold) in animal model for metastatic bone disease; format: in vivo; settings: metastatic bone tumor animals, day 14
Protocol: as §1, with “Treatment with PTH (1-34) or vehicle ended 14 d after injection, when final behavioral testing was done and the animals sacrificed.” left out
Tactile allodynia was determined in the manner described by Chaplan et al. J Neurosci Methods (1994) 53(1):55-63. Paw withdrawal threshold was determined in response to probing with calibrated von Frey filaments. […] The 50% paw withdrawal threshold was determined by the non-parametric method of Dixon (Dixon, Annu Rev Pharmacol Toxicol 20:441-462, 1980). […] The 50% paw withdrawal threshold was determined as (10^[Xf+kδ])/10,000, where Xf=the value of the last von Frey filament employed, k=Dixon value for the positive/negative pattern, and δ=the mean (log) difference between stimuli. […]

PTH(1-25): carboxyl-terminal truncation of PTH(1-34) (SVSEIQLMHNLGKHLNSMERVEWLR; UniProt P01270 32-56, looked up, fragment)
agonist activity of PTH fragment [1]: essentially inactive

teriparatide acetate
risk of osteosarcoma (a malignant bone tumor) [2]: increased risk of osteosarcoma

PTH(1-34): truncated form of parathyroid hormone, residues 1-34; PTH receptor agonist tested in the mouse model (SVSEIQLMHNLGKHLNSMERVEWLRKKLQDVHNF; listed as Homo sapiens)
bone density (optical density of x-ray radiographs) ([3]; normal (sham-injected) animals, daily s.c. PTH(1-34), day 14): some bone density increase | bone density (optical density of x-ray radiographs) ([3]; sarcoma bearing animals, daily s.c. from day 6, day 14): near normal bone density | bone density (optical density of x-ray radiographs) ([3]; sarcoma bearing animals, day 17, versus normal untreated animals): increase in density over that of normal untreated animals | limb use [4]: ameloriated pain | limb use ([4]; listed as PTH (1-34)): returned to near normal levels | limb guarding [5]: ameloriated pain; also recorded: significantly reduced | spontaneous pain (spontaneous flinching) [5]: ameloriated pain | tactile hypersensitivity (evoked pain) [6]: not effected | tactile hypersensitivity (evoked pain) ([6]; listed as PTH (1-34)): did not effect
